Measurements: patent US20150105252A1, “SUBSTITUTED PYRAZOLES AS HERBICIDES” (E I DU PONT DE NEMOURS AND COMPANY, priority 2013, published 2015)

Assays:
pigweed [1] = assay: Test A preemergence; format: in vivo, Amaranthus retroflexus; conditions: preemergence; for Pigweed plant response rating (0 to 100 scale): 125 g ai/ha, visual injury approx. 10 days after treatment; for Pigweed plant response rating: 500 g ai/ha, visual injury after approx. 10 days, 0 to 100 scale (0 no effect, 100 complete control)
How it was run: (§1)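 Both timings tested concurrently in loam/sand soil: preemergence by directed soil spray, postemergence on plants of 2–10 cm at the one- to two-leaf stage. Greenhouse holding period was approximately 10 days before visual injury assessment (0–100, 0 = no effect).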

velvetleaf = assay: Test A preemergence; format: in vivo, Abutilon theophrasti; conditions: preemergence; for Velvetleaf plant response rating (0 to 100 scale): 125 g ai/ha, visual injury approx. 10 days after treatment; for Velvetleaf plant response rating: 500 g ai/ha, visual injury after approx. 10 days, 0 to 100 scale (0 no effect, 100 complete control)
How it was run: as §1

barnyardgrass = assay: Test B flood; format: in vivo, Echinochloa crus-galli; conditions: 250 g ai/ha, visual rating on 0 to 100 scale (0 no effect, 100 complete control), 13 to 15 days
How it was run: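 Greenhouse assay lasting 13 to 15 days. Treatment was into water flooding pots 3 cm deep, at the 2-leaf stage, with that level sustained afterwards. Scores compare treated with control plants visually, 100 denoting complete control and 0 no effect; a dash marks no test result.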

ryegrass, Italian = assay: Test C preemergence; format: in vivo, Lolium multiflorum; conditions: preemergence; for Plant response rating, Ryegrass, Italian: 125 g ai/ha, scale 0 to 100, 0 = no effect, 100 = complete control
How it was run: (§2)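 Visual control ratings on a 0–100 scale (100 = complete control) made against untreated controls after 13 to 15 days in greenhouse. Compounds applied in surfactant-containing solvent mixture, either preemergence to loam/sand-sown seeds or postemergence to 1- to 4-leaf plants (2–18 cm) in peat medium.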

wheat [2] = assay: Test C preemergence; format: in vivo, Triticum aestivum; conditions: preemergence; for Plant response rating, Wheat: 125 g ai/ha, scale 0 to 100, 0 = no effect, 100 = complete control
How it was run: as §2

galium = assay: Test C preemergence; format: in vivo, Galium aparine; conditions: preemergence; for Plant response rating, Galium: 125 g ai/ha, scale 0 to 100, 0 = no effect, 100 = complete control
How it was run: as §2

oilseed rape = assay: Test C preemergence; format: in vivo, Brassica napus; conditions: preemergence; for Plant response rating, Oilseed Rape: 125 g ai/ha, scale 0 to 100, 0 = no effect, 100 = complete control
How it was run: as §2

wheat [3] = assay: Test C postemergence; format: in vivo, Triticum aestivum; conditions: postemergence, 250 g ai/ha; scale 0 to 100 (0 no effect, 100 complete control)
How it was run: as §2

corn = assay: Test C postemergence; format: in vivo, Zea mays; conditions: for Plant response rating (scale of 0 to 100 where 0 is no effect and 100 is complete control), Corn: Postemergence, 31 g ai/ha, visually evaluated after 13 to 15 days; for Corn plant response rating / Plant response rating, Corn: postemergence; for Corn plant response rating: 62 g ai/ha, scale 0 to 100
How it was run: as §2

johnsongrass = assay: Test C postemergence; format: in vivo, Sorghum halepense; conditions: for Plant response rating (scale of 0 to 100 where 0 is no effect and 100 is complete control), Johnsongrass: Postemergence, 31 g ai/ha, visually evaluated after 13 to 15 days; for Johnsongrass plant response rating / Plant response rating, Johnsongrass: postemergence; for Johnsongrass plant response rating: 62 g ai/ha, scale 0 to 100
How it was run: as §2

pigweed [4] = assay: Test C postemergence; format: in vivo, Amaranthus retroflexus; conditions: postemergence; for Pigweed plant response rating: 62 g ai/ha, scale 0 to 100
How it was run: as §2

ragweed = assay: Test C postemergence; format: in vivo, Ambrosia elation; conditions: postemergence
How it was run: as §2

soybean = assay: Test C postemergence; format: in vivo, Glycine max; conditions: postemergence; for Plant response rating, Soybean: 250 g ai/ha, scale 0 to 100 (0 no effect, 100 complete control); for Soybean plant response rating: 125 g ai/ha, scale 0 to 100, 0 no effect, 100 complete control
How it was run: as §2

chickweed = assay: Test C postemergence; format: in vivo, Stellaria media; conditions: for Plant response rating (scale of 0 to 100 where 0 is no effect and 100 is complete control), Chickweed: Postemergence, 31 g ai/ha, visually evaluated after 13 to 15 days; for Chickweed plant response rating / Plant response rating, Chickweed: postemergence; for Chickweed plant response rating: 62 g ai/ha, scale 0 to 100
How it was run: as §2

[5] = 31 g ai/ha, visual rating, scale 0 to 100 (0 no effect, 100 complete control), 13 to 15 days
[6] = 62 g ai/ha, scale 0 to 100 (0 no effect, 100 complete control), 13 to 15 days
[7] = 250 g ai/ha, scale 0 to 100, 0 is no effect, 100 is complete control
[8] = 250 g ai/ha, scale 0 to 100 (0 no effect, 100 complete control)
[9] = 125 g ai/ha, scale 0 to 100, 0 no effect, 100 complete control

Structure (SMILES): CCOc1cc(C(=O)NC2CC2)nn1Cc1ccnc(C(F)(F)F)c1 [Compound 189]
- Pigweed plant response rating (0 to 100 scale) (pigweed [1]): 0
- Pigweed plant response rating (pigweed [1]): 0
- Velvetleaf plant response rating (0 to 100 scale) (velvetleaf): 100
- Velvetleaf plant response rating (velvetleaf): 100
- Plant response rating, Barnyardgrass (barnyardgrass): 60
- Ryegrass, Italian plant response rating (ryegrass, Italian; [5]): 40
- Ryegrass, Italian plant response rating (ryegrass, Italian; [6]): 90
- Plant response rating, Ryegrass, Italian (ryegrass, Italian; 13 to 15 days): 90
- Ryegrass, Italian plant response rating (ryegrass, Italian; [7]): 90
- Wheat plant response rating (wheat [2]; [5]): 40
- Wheat plant response rating (wheat [2]; [6]): 80
- Plant response rating, Wheat (wheat [2]; 13 to 15 days): 90
- Wheat plant response rating (wheat [2]; [7]): 90
- Galium plant response rating (galium; [5]): 90
- Galium plant response rating (galium; [6]): 95
- Plant response rating, Galium (galium; 13 to 15 days): 100
- Galium plant response rating (galium; [7]): 100
- Oilseed Rape plant response rating (oilseed rape; [5]): 98
- Oilseed Rape plant response rating (oilseed rape; [6]): 95
- Plant response rating, Oilseed Rape (oilseed rape; 13 to 15 days): 95
- Oilseed Rape plant response rating (oilseed rape; [7]): 95
- Plant response rating, Wheat (wheat [3]): 15
- Plant response rating (scale of 0 to 100 where 0 is no effect and 100 is complete control), Corn (corn): 5
- Corn plant response rating (corn): 10
- Plant response rating, Corn (corn; [8]): 60
- Plant response rating, Corn (corn; [9]): 10
- Plant response rating (scale of 0 to 100 where 0 is no effect and 100 is complete control), Johnsongrass (johnsongrass): 0
- Johnsongrass plant response rating (johnsongrass): 15
- Plant response rating, Johnsongrass (johnsongrass; [8]): 35
- Plant response rating, Johnsongrass (johnsongrass; [9]): 5
- Pigweed plant response rating (pigweed [4]): 75
- Plant response rating, Pigweed (pigweed [4]; [8]): 90
- Plant response rating, Pigweed (pigweed [4]; [9]): 85
- Plant response rating, Ragweed (ragweed; [8]): 90
- Plant response rating, Ragweed (ragweed; [9]): 75
- Plant response rating, Soybean (soybean): 95
- Soybean plant response rating (soybean): 95
- Plant response rating (scale of 0 to 100 where 0 is no effect and 100 is complete control), Chickweed (chickweed): 80
- Chickweed plant response rating (chickweed): 80
- Plant response rating, Chickweed (chickweed; [8]): 90
- Plant response rating, Chickweed (chickweed; [9]): 85

Structure (SMILES): CCNC(=O)c1cc(CC)n(Cc2ccnc(C(F)(F)F)c2)n1 [Compound 196]
- Pigweed plant response rating (0 to 100 scale) (pigweed [1]): 100
- Pigweed plant response rating (pigweed [1]): 100
- Velvetleaf plant response rating (0 to 100 scale) (velvetleaf): 80
- Velvetleaf plant response rating (velvetleaf): 100
- Plant response rating, Barnyardgrass (barnyardgrass): 30
- Ryegrass, Italian plant response rating (ryegrass, Italian; [5]): 30
- Ryegrass, Italian plant response rating (ryegrass, Italian; [6]): 85
- Plant response rating, Ryegrass, Italian (ryegrass, Italian; 13 to 15 days): 90
- Ryegrass, Italian plant response rating (ryegrass, Italian; [7]): 90
- Wheat plant response rating (wheat [2]; [5]): 0
- Wheat plant response rating (wheat [2]; [6]): 65
- Plant response rating, Wheat (wheat [2]; 13 to 15 days): 85
- Wheat plant response rating (wheat [2]; [7]): 80
- Galium plant response rating (galium; [5]): 98
- Galium plant response rating (galium; [6]): 95
- Plant response rating, Galium (galium; 13 to 15 days): 100
- Galium plant response rating (galium; [7]): 100
- Oilseed Rape plant response rating (oilseed rape; [5]): 90
- Oilseed Rape plant response rating (oilseed rape; [6]): 98
- Plant response rating, Oilseed Rape (oilseed rape; 13 to 15 days): 100
- Oilseed Rape plant response rating (oilseed rape; [7]): 100
- Plant response rating, Wheat (wheat [3]): 5
- Plant response rating (scale of 0 to 100 where 0 is no effect and 100 is complete control), Corn (corn): 5
- Corn plant response rating (corn): 5
- Plant response rating, Corn (corn; [8]): 15
- Plant response rating, Corn (corn; [9]): 5
- Plant response rating (scale of 0 to 100 where 0 is no effect and 100 is complete control), Johnsongrass (johnsongrass): 0
- Johnsongrass plant response rating (johnsongrass): 5
- Plant response rating, Johnsongrass (johnsongrass; [8]): 15
- Plant response rating, Johnsongrass (johnsongrass; [9]): 10
- Pigweed plant response rating (pigweed [4]): 60
- Plant response rating, Pigweed (pigweed [4]; [8]): 70
- Plant response rating, Pigweed (pigweed [4]; [9]): 70
- Plant response rating, Ragweed (ragweed; [8]): 40
- Plant response rating, Ragweed (ragweed; [9]): 15
- Plant response rating, Soybean (soybean): 95
- Soybean plant response rating (soybean): 80
- Plant response rating (scale of 0 to 100 where 0 is no effect and 100 is complete control), Chickweed (chickweed): 50
- Chickweed plant response rating (chickweed): 60
- Plant response rating, Chickweed (chickweed; [8]): 80
- Plant response rating, Chickweed (chickweed; [9]): 80
